# Results as given in US20100130579A1, “CANCER THERAPY” (Georgetown University, priority 2006, published 2010).
# Experiments:
# cyclin E1 = assay: RT-PCR of cyclin E1 mRNA in prostate cancer cells; format: cell-based, human; conditions: PC3 or LNCaP cells, mahanine treatment
# Protocol: (§1) FIG. 5. RASSF1A down-regulates cyclin D1 expression in prostate cancer cells but not other cyclins. […] RNA was extracted, and RT-PCR assays were performed to detect RASSF1A, cyclin A1, B1, D1, E1 and GAPDH mRNAs. Representative photograph from an experiment that was repeated thrice. Quantitative estimations of relative levels of cyclin D1 and RASSF1A mRNAs were determined by densitometric measurements of RT-PCR gels from three independent experiments after normalization with GAPDH.
# (§2) Genes of interest were amplified using 500 ng of total RNA reverse-transcribed to cDNA using a Superscript II kit (Invitrogen) with random hexamers. Human-specific primers were designed using the Primer Quest program and purchased from Integrated DNA Technologies, Inc (Coralville, Iowa). […] After amplification, PCR products were separated on 1.5% agarose gels and visualized by ethidium bromide fluorescence using the Fuji LAS-1000 Imager. […] Band intensities were quantified by using ImageJ software (NIH, Bethesda, Md.).
# cyclin D1 protein = assay: Western blot of cyclin D1 protein levels; format: cell-based, human; conditions: 3 days
# Protocol: FIGS. 3A-3C. Mahanine down-regulates cyclin D1 protein in prostate cancer cells. FIG. 3A and FIG. 3B: Western blots showing cyclin D1 protein levels in PC3 (A) and LNCaP (B) cells treated with 0, 1, 2 and 3 μg/ml mahanine for 3 days. Protein lysates (50 μg) from PC3 and LNCaP cells were resolved on 12% SDS-PAGE, and immunoblots were probed with antibodies to cyclin D1. All immunoblots were re-probed with β-actin antibodies to ensure equal loading. Representative photographs from an experiment that was repeated thrice. Quantitative analyses of relative levels of cyclin D1 proteins are shown on the right panels. […] FIG. 3C: PC3 cells were plated on chamber slides and treated with or without 2 μg/ml mahanine for 2 days. Cells were then fixed in methanol, incubated with cyclin D1 antibody overnight, Alexi Fluor-conjugated secondary antibodies for 1 hour and counter stained with propidium iodide (PI). Slides were then mounted and examined using a fluorescence microscope. Photographs were taken at the same magnification (×20) and then transported to Photoshop. Representative photographs from an experiment that was repeated twice.
# Western blots analysis: Protein lysates were prepared from PC3 and LNCaP cells that were treated with or without mahanine. […] Band intensities were quantified by utilizing ImageJ software (NIH, Bethesda, Md.).
# cyclin A1 = assay: RT-PCR of cyclin A1 mRNA in prostate cancer cells; format: cell-based, human; conditions: PC3 or LNCaP cells, mahanine treatment
# LNCaP and PC3 cells [1] = conditions: androgen-responsive LNCaP and androgen-independent PC3 cells; cited from earlier work
# LNCaP and PC3 cells [2] = conditions: 3 μg/ml; cited from earlier work
# cyclin D1 promoter = assay: Cyclin D1 promoter activity (luciferase) assay; format: cell-based, human; conditions: PC3 cells
# Protocol: FIGS. 6A-6B. Mahanine regulates the transcriptional activity of cyclin D1 and RASSF1A siRNA prevents mahanine-induced repression of cyclin D1 transcriptional activity. FIG. 6A: PC3 cells were transfected with 200 ng of full-length cyclin D1 promoter luciferase plasmids (−1745cyclin D1-Luc) or basic luciferase (PA3-Luc) plasmids and 10 ng of Renilla luciferase (pRL-TK-Luc) plasmids. Twenty-four hours after transfection cells were treated with 0, 1 and 2 μg/ml mahanine for 48 hours in normal growth media. FIG. 6B: PC3 cells were transfected with 200 ng of full-length cyclin D1 promoter luciferase plasmids or basic luciferase plasmids and 10 ng of Renilla luciferase (pRL-TK-Luc) plasmids with 200 ng of RASSF1A or RASSF1A siRNA with or without 2 μg/ml mahanine for 48 hours in normal growth media. After treatment, cells were harvested, and luciferase assays were performed. Relative cyclin D1 promoter activity was determined after normalization with Renilla luciferase activity. […]
# Cyclin D1 promoter activity assay: PC3 cells were transfected with 200 ng of cyclin D1 promoter-luciferase (−1745-cyclin D1-Luc) (35) construct using GeneJammer transfection reagent (Stratagene, La Jolla, Calif.). […] After 48 hours, luciferase activity was measured in cell lysates in a microplate luminometer using the Dual Luciferase Assay kit (Promega, Madison, Wis.) according to the manufacturer's protocol. […]
# cyclin B1 = assay: RT-PCR of cyclin B1 mRNA in prostate cancer cells; format: cell-based, human; conditions: PC3 or LNCaP cells, mahanine treatment
# Protocol: as §1, §2
# Akt = conditions: prostate cancer cells; cited from earlier work
smiles,measurement,setting,value
CC(C)=CCC[C@@]1(C)C=Cc2c(c(C)cc3c2[nH]c2cc(O)ccc23)O1 [mahanine],cyclin E1 expression (RT-PCR),cyclin E1,did not alter the expression
same,cyclin D1 protein levels decreased to,"cyclin D1 protein; PC3 cells, 1 μg/ml, p<0.01",about 40%
same,cyclin D1 protein (Western blot),"cyclin D1 protein; PC3 cells, 1, 2 and 3 μg/ml",dose-dependent decrease
same,cyclin A1 expression (RT-PCR),cyclin A1,did not alter the expression
same,growth of prostate cancer cells,LNCaP and PC3 cells [1],inhibits growth in a dose-dependent manner
same,apoptosis,LNCaP and PC3 cells [2],induces apoptosis
same,cyclin D1 promoter activity,"cyclin D1 promoter; 1 and 2 μg/ml mahanine, 48 hours, P<0.01",decreased cyclin D1 promoter activity in a dose-dependent manner
same,cyclin D1 promoter activity relative to basic vector transfected cells,cyclin D1 promoter; full-length cyclin D1 promoter luciferase construct,approximately 20 fold
same,cyclin B1 expression (RT-PCR),cyclin B1,did not alter the expression
same,Akt activation state,Akt,deactivated Akt
